In patent US8940724B2, “Quinoline derivitives and their uses” (Amgen Inc., priority 2009, dated 2015) one finds Ki data, which are given here for 25 compounds.

The test deals with T1, PI3Kδ (Homo sapiens, UniProt O00329).
T1 construct: Full length p110 subunits of PI3k α, β and δ, N-terminally labeled with polyHis tag; polyHis (N); made in house; host or cells: Sf9 insect cells (baculovirus)
Briefly: PI3Kδ Alphascreen assay. It counts as biochemical. Background: In Alpha technology, singlet oxygen from a donor bead excites a nearby acceptor bead.

Molecules are shown by their SMILES.

T1 sequence (O00329 whole entry): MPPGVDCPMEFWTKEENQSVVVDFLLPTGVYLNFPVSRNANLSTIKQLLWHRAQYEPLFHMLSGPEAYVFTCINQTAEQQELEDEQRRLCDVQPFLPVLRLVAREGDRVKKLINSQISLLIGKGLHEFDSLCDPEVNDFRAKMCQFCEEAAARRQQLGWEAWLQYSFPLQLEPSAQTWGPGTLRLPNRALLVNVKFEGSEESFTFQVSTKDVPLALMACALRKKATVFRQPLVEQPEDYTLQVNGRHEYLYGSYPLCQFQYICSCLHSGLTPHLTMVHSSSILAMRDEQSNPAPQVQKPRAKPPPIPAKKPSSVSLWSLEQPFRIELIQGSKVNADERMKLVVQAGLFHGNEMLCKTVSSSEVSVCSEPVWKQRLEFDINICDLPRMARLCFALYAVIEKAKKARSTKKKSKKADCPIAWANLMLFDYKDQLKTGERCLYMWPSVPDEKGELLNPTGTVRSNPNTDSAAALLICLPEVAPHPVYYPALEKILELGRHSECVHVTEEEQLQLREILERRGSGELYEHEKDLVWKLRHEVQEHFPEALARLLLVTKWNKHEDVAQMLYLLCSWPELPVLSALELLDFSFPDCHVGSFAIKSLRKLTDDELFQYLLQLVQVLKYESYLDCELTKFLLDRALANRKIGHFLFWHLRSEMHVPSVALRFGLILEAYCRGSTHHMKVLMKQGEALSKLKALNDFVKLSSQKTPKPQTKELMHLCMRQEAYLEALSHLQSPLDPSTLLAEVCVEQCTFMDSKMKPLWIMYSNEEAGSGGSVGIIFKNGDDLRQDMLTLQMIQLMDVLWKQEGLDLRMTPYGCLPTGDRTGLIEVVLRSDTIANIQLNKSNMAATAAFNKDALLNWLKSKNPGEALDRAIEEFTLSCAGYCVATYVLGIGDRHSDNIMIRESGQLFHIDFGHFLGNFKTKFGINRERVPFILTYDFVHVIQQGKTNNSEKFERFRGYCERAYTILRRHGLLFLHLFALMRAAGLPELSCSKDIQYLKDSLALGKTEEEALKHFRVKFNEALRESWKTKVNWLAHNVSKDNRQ
T1 sequence (P27986 whole entry partner): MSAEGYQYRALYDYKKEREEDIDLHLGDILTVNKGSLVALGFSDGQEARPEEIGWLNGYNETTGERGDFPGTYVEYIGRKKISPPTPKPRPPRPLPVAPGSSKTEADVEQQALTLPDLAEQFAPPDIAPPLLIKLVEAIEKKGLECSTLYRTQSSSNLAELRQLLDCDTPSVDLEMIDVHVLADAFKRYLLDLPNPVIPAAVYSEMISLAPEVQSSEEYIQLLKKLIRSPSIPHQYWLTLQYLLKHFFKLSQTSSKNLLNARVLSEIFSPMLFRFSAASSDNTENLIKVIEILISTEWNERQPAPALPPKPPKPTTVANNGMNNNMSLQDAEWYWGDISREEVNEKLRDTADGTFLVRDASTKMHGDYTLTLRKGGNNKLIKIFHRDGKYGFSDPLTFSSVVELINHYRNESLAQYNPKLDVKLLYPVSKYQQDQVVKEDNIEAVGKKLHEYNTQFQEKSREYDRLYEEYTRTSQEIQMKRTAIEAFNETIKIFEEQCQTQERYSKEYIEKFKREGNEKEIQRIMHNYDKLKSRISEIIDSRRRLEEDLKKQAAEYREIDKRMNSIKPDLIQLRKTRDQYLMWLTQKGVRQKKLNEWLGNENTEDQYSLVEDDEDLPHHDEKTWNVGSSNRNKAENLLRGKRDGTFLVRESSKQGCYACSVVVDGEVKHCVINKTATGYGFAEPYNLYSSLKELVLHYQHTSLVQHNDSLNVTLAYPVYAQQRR

One may read the Ki as the dissociation constant of the complex between target and ligand, obtained from inhibition or displacement. The low end stands for tighter binding, the high end for weaker binding. As to `CC(=O)c1ccc(S(C)(=O)=O)c(-c2nc3cc(F)cc(F)c3c(Nc3cncc(N4CCOCC4)c3)c2C)c1` [1-(3-(5,7-difluoro-3-methyl-4-((5-(4-morpholinyl)-3-pyridinyl)-amino)-2-quinolinyl)-4-(methylsulfonyl)phenyl)ethanone], the inhibition constant Ki was determined as 2.18 nM.

`Cc1c(N2CCC2=O)nc2cc(F)cc(F)c2c1Nc1cncc(N2CCOCC2)c1` [1-(5,7-difluoro-3-methyl-4-((5-(4-morpholinyl)-3-pyridinyl)-amino)-2-quinolinyl)-2-azetidinone] returned a Ki of 27.2 nM.

As for `Cc1c(N2CCCCC2=O)nc2cc(F)cc(F)c2c1Nc1cncc(N2CCOCC2)c1` [1-(5,7-difluoro-3-methyl-4-((5-(4-morpholinyl)-3-pyridinyl)-amino)-2-quinolinyl)-2-piperidinone], the Ki was 203 nM.

Regarding `Cc1c(N2CC(C)(C)CC2=O)nc2cc(F)cc(F)c2c1Nc1cncc(N2CCOCC2)c1` [1-(5,7-difluoro-3-methyl-4-((5-(4-morpholinyl)-3-pyridinyl)-amino)-2-quinolinyl)-4,4-dimethyl-2-pyrrolidinone], affinity was put at a Ki of 21.4 nM.

In turn, `Cc1c(N2CC(C)(C)CCC2=O)nc2cc(F)cc(F)c2c1Nc1cncc(N2CCOCC2)c1` [1-(5,7-difluoro-3-methyl-4-((5-(4-morpholinyl)-3-pyridinyl)-amino)-2-quinolinyl)-5,5-dimethyl-2-piperidinone] returned an inhibitory constant (Ki) of 38.6 nM.

As for `Cc1c(N2CCC[C@@H]2C(=O)O)nc2cc(F)cc(F)c2c1Nc1cncc(N2CCOCC2)c1` [1-(5,7-difluoro-3-methyl-4-((5-(4-morpholinyl)-3-pyridinyl)-amino)-2-quinolinyl)-D-proline], the Ki is 59.9 nM.

The compound `Cc1c(N2CCC[C@H]2C(=O)O)nc2cc(F)cc(F)c2c1Nc1cncc(N2CCOCC2)c1` [1-(5,7-difluoro-3-methyl-4-((5-(4-morpholinyl)-3-pyridinyl)-amino)-2-quinolinyl)-L-proline] had a Ki of 9.37 nM.

Turning to `Cc1c(N2CCC[C@@H]2C(=O)N(C)C)nc2cc(F)cc(F)c2c1Nc1cncc(N2CCOCC2)c1` [1-(5,7-difluoro-3-methyl-4-((5-(4-morpholinyl)-3-pyridinyl)-amino)-2-quinolinyl)-N,N-dimethyl-D-prolinamide], affinity was put at a Ki of 10.3 nM.

As to `CNC(=O)[C@H]1CCCN1c1nc2cc(F)cc(F)c2c(Nc2cncc(N3CCOCC3)c2)c1C` [1-(5,7-difluoro-3-methyl-4-((5-(4-morpholinyl)-3-pyridinyl)-amino)-2-quinolinyl)-N-methyl-D-prolinamide], the inhibitory constant (Ki) came out at 10.4 nM.

`Cc1c(-c2ccc(N3CCC(O)C3)nc2)nc2cc(F)cc(F)c2c1Nc1cc(N2CCOCC2)cnc1N1CCOCC1` (stereo not shown) [1-(5-(4-((2,5-di-4-morpholinyl-3-pyridinyl)amino)-5,7-difluoro-3-methyl-2-quinolinyl)-2-pyridinyl)-3-pyrrolidinol]: the affinity, expressed as Ki, was 36.3 nM.

Compound `Cc1c(N2CCN(C(=O)OC(C)C)CC2)nc2cc(F)cc(F)c2c1Nc1cncc(N2CCOCC2)c1` [1-methylethyl 4-(5,7-difluoro-3-methyl-4-((5-(4-morpholinyl)-3-pyridinyl)amino)-2-quinolinyl)-1-piperazinecarboxylate] yielded a Ki of 38.8 nM.

Turning to `Cc1c(N2CCN(C(=O)OCC(C)(C)C)CC2)nc2cc(F)cc(F)c2c1Nc1cncc(N2CCOCC2)c1` [2,2-dimethylpropyl 4-(5,7-difluoro-3-methyl-4-((5-(4-morpholinyl)-3-pyridinyl)amino)-2-quinolinyl)-1-piperazinecarboxylate], affinity was put at a Ki of 99 nM.

For `Cc1cccc(-c2nc3cc(F)cc(F)c3c(Nc3cc(N4CCOCC4)cnc3N3CCOCC3)c2C)c1C` [2-(2,3-dimethylphenyl)-N-(2,5-di-4-morpholinyl-3-pyridinyl)-5,7-difluoro-3-methyl-4-quinolinamine], the Ki was determined as 12.9 nM.

`Cc1c(-c2ccc(C(F)(F)F)cc2C(F)(F)F)nc2cc(F)cc(F)c2c1Nc1cc(N2CCOCC2)cnc1N1CCOCC1` [2-(2,4-bis(trifluoromethyl)phenyl)-N-(2,5-di-4-morpholinyl-3-pyridinyl)-5,7-difluoro-3-methyl-4-quinolinamine] returned an inhibition constant Ki of 344 nM.

The compound `Cc1ccc(-c2nc3cc(F)cc(F)c3c(Nc3cc(N4CCOCC4)cnc3N3CCOCC3)c2C)c(C)c1` [2-(2,4-dimethylphenyl)-N-(2,5-di-4-morpholinyl-3-pyridinyl)-5,7-difluoro-3-methyl-4-quinolinamine] yielded a Ki of 26.8 nM.

`Cc1ccc(-c2nc3cc(F)cc(F)c3c(Nc3cc(N4CCOCC4)cnc3N3CCOCC3)c2C)cc1C` [2-(3,4-dimethylphenyl)-N-(2,5-di-4-morpholinyl-3-pyridinyl)-5,7-difluoro-3-methyl-4-quinolinamine] gave an inhibition constant Ki of 101 nM.

Compound `Cc1c(-c2cc(F)cc(F)c2)nc2ncccc2c1Nc1cc(N2CCOCC2)ccc1N1CCOCC1` [2-(3,5-difluorophenyl)-N-(2,5-di-4-morpholinylphenyl)-3-methyl-1,8-naphthyridin-4-amine] showed a Ki of 582 nM.

Take `Cc1c(N2CCN(CC(C)(C)C)CC2)nc2cc(F)cc(F)c2c1Nc1cncc(N2CCOCC2)c1` [2-(4-(2,2-dimethylpropyl)-1-piperazinyl)-5,7-difluoro-3-methyl-N-(5-(4-morpholinyl)-3-pyridinyl)-4-quinolinamine]: the Ki came to 98.8 nM.

Consider `Cc1c(N2CCN(C(=O)C3CCCC3)CC2)nc2cc(F)cc(F)c2c1Nc1cncc(N2CCOCC2)c1` [2-(4-(cyclopentylcarbonyl)-1-piperazinyl)-5,7-difluoro-3-methyl-N-(5-(4-morpholinyl)-3-pyridinyl)-4-quinolinamine], for which the Ki is 42 nM.

Take `Cc1c(N2CCN(S(=O)(=O)C3CCCC3)CC2)nc2cc(F)cc(F)c2c1Nc1cncc(N2CCOCC2)c1` [2-(4-(cyclopentylsulfonyl)-1-piperazinyl)-5,7-difluoro-3-methyl-N-(5-(4-morpholinyl)-3-pyridinyl)-4-quinolinamine]: the affinity corresponds to a Ki of 51 nM.

`CCS(=O)(=O)N1CCN(c2nc3cc(F)cc(F)c3c(Nc3cncc(N4CCOCC4)c3)c2C)CC1` [2-(4-(ethylsulfonyl)-1-piperazinyl)-5,7-difluoro-3-methyl-N-(5-(4-morpholinyl)-3-pyridinyl)-4-quinolinamine] returned a Ki of 88.4 nM.

Compound `CC(=O)N1CCN(c2nc3cc(F)cc(F)c3c(Nc3cncc(N4CCOCC4)c3)c2C)CC1` [2-(4-acetyl-1-piperazinyl)-5,7-difluoro-3-methyl-N-(5-(4-morpholinyl)-3-pyridinyl)-4-quinolinamine] showed a Ki of 33.6 nM.

With `Cc1c(-c2cc(Cl)ccn2)nc2cc(F)cc(F)c2c1Nc1cc(N2CCOCC2)cnc1N1CCOCC1` [2-(4-chloro-2-pyridinyl)-N-(2,5-di-4-morpholinyl-3-pyridinyl)-5,7-difluoro-3-methyl-4-quinolinamine], the affinity corresponds to a Ki of 4.37 nM.

In turn, `Cc1c(N2CCN(C3CCCCC3)CC2)nc2cc(F)cc(F)c2c1Nc1cncc(N2CCOCC2)c1` [2-(4-cyclohexyl-1-piperazinyl)-5,7-difluoro-3-methyl-N-(5-(4-morpholinyl)-3-pyridinyl)-4-quinolinamine] returned an inhibition constant Ki of 28.4 nM.

As to `CCN1CCN(c2nc3cc(F)cc(F)c3c(Nc3cncc(N4CCOCC4)c3)c2C)CC1` [2-(4-ethyl-1-piperazinyl)-5,7-difluoro-3-methyl-N-(5-(4-morpholinyl)-3-pyridinyl)-4-quinolinamine], the Ki is 15.3 nM.
